Reference: patent publication US12690589B2, “Herbicidal compositions comprising pyroxasulfone” (BASF SE, priority 2024, dated 2026)

Key:
Experiment in all cases: Post-emergence application in field trials, herbicidal activity (damage scale 0 to 100%)
Assay type in all cases: in vivo
Hordeum vulgare (HORVW) = conditions: HORVW, growth stage 23-29, height 20-25 cm
Experimental: (§1) In the examples below, using the method of S. R. Colby (1967) “Calculating synergistic and antagonistic responses of herbicide combinations”, Weeds 15, p. 22ff., the value E, which is expected if the activity of the individual active compounds is only additive, was calculated:
(§2) [formula] • wherein • X=percent activity using active herbicide A at an application rate a; • Y=percent activity using active herbicide B (e.g. pyroxasulfone) at an application rate b; • E=expected activity (in %) by A+B at application rates a+b.
(§3) For 3-component mixtures the synergistic response was calculated as described in: Ferry, Nancy; Stanley, Bruce H.; and Armel, Gregory (2005). “DESIGN AND ANALYSIS OF BIOLOGICAL ASSAYS OF MIXTURES,” Conference on Applied Statistics in Agriculture. https://doi.org/10.4148/2475-7772.1133. According to this publication, the Colby calculation can be generalized to a third mixing partner, Z, employing the following formula: […]
(§4) If the value found experimentally is higher than the value E calculated according to Colby, a synergistic effect is present.
(§5) On field test sites, natural weed infestation or seeded weeds were treated post-emergence of the weeds.
(§6) In the field trials, the weeds were treated as indicated below.
(§7) In the following experiments, the herbicidal activity for the individual herbicidal compositions (solo and mixture applications) was assessed at the indicated days after treatment (DAT). The assessments for the damage on undesired weeds caused by the composition was carried out using a scale from 0 to 100%, compared to the untreated control plants. Here, 0 means no damage and 100 means complete destruction of the plants.
(§8) Herbicide A-1 (342 g/l) and pyroxasulfone (500 g/l) were, together with addition of 0.25 v/v % MSO (methylated seed oil) as adjuvant, formulated in 200 l/ha water as distribution medium and sprayed with commercial flat fan nozzles.
(§9) Herbicide A-1 (342 g/l), pyroxasulfone (500 g/l) and trifludimoxazin (500 g/l) were, together with addition of 0.25 v/v % MSO (methylated seed oil) as adjuvant, formulated in 200 l/ha water as distribution medium and sprayed with commercial flat fan nozzles.
(§10) Herbicide A-1 (342 g/I), pyroxasulfone (500 g/l) and glyphosate-isopropylammonium (356 g/l) were, together with addition of 0.25 v/v % MSO (methylated seed oil) as adjuvant, formulated in 200 l/ha water as distribution medium and sprayed with commercial flat fan nozzles.
(§11) Herbicide A-1 (342 g/l), pyroxasulfone (500 g/l) and glufosinate-P-ammonium (211 g/l) were, together with addition of 0.25 v/v % MSO (methylated seed oil) as adjuvant, formulated in 200 l/ha water as distribution medium and sprayed with commercial flat fan nozzles.
(§12) Herbicide A-1 (342 g/l), pyroxasulfone (500 g/l) and 2,4-D-choline (456 g/l) were, together with addition of 0.25 v/v % MSO (methylated seed oil) as adjuvant, formulated in 200 l/ha water as distribution medium and sprayed with commercial flat fan nozzles.

[1] = system: Digitaria sanguinalis (DIGSA)
Experimental: as §1, §2, §3, §4, §5, §6, §7, §8, §9, §10, §11, §12

[2] = system: Setaria verticillata (SETVE)
Experimental: as §1, §2, §3, §4, §5, §6, §7, §8, §9, §10, §11, §12

Measured: % Herbicidal activity

Cn1nc(C(F)(F)F)c(CS(=O)(=O)C2=NOC(C)(C)C2)c1OC(F)F [B, pyroxasulfone]
0%: Hordeum vulgare (HORVW); B 70 g ai/ha, 21 DAT, Table 4.4 | Hordeum vulgare (HORVW); B 70 g ai/ha, 28 DAT, Table 4.5 | Hordeum vulgare (HORVW); B 90 g ai/ha, 7 DAT, Table 4.2 | Hordeum vulgare (HORVW); B 90 g ai/ha, 21 DAT, Table 4.4 | Hordeum vulgare (HORVW); B 90 g ai/ha, 28 DAT, Table 4.5 | [1]; 7 DAT, stage 22, height 10-15 cm, g ai/ha A-1 12.5, B 70, C-4 12.5 | [1]; 7 DAT, stage 22, height 10-15 cm, g ai/ha A-1 18, B 70, C-4 12.5 | [1]; 7 DAT, stage 22, height 10-15 cm, g ai/ha A-1 18, B 70, C-8 840 | [1]; 7 DAT, stage 22, height 10-15 cm, g ai/ha A-1 18, B 70, C-12 252 | [1]; 7 DAT, stage 22, height 10-15 cm, g ai/ha A-1 18, B 90, C-4 12.5 | [1]; 7 DAT, stage 22, height 10-15 cm, g ai/ha A-1 18, B 90, C-8 840 | [1]; 7 DAT, stage 22, height 10-15 cm, g ai/ha A-1 18, B 90, C-12 252 | [1]; 21 DAT, stage 22, height 10-15 cm, g ai/ha A-1 12.5, B 70, C-4 12.5 | [1]; 21 DAT, stage 22, height 10-15 cm, g ai/ha A-1 18, B 70, C-4 12.5 | [1]; 21 DAT, stage 22, height 10-15 cm, g ai/ha A-1 18, B 70, C-12 252 | [1]; 21 DAT, stage 22, height 10-15 cm, g ai/ha A-1 18, B 90, C-4 12.5 | [1]; 21 DAT, stage 22, height 10-15 cm, g ai/ha A-1 18, B 90, C-12 252 | [1]; 42 DAT, stage 22, height 10-15 cm, g ai/ha A-1 12.5, B 70 | [1]; 42 DAT, stage 22, height 10-15 cm, g ai/ha A-1 12.5, B 70, C-4 12.5 | [1]; 42 DAT, stage 22, height 10-15 cm, g ai/ha A-1 18, B 70 | [1]; 42 DAT, stage 22, height 10-15 cm, g ai/ha A-1 18, B 70, C-4 12.5 | [1]; 42 DAT, stage 22, height 10-15 cm, g ai/ha A-1 18, B 70, C-12 252 | [1]; 42 DAT, stage 22, height 10-15 cm, g ai/ha A-1 18, B 90 | [1]; 42 DAT, stage 22, height 10-15 cm, g ai/ha A-1 18, B 90, C-4 12.5 | [1]; 42 DAT, stage 22, height 10-15 cm, g ai/ha A-1 18, B 90, C-12 252 | [1]; DIGSA, growth stage 22, height 10-15 cm, B 70 g ai/ha, 7 DAT, Table 4.1 | [1]; DIGSA, growth stage 22, height 10-15 cm, B 70 g ai/ha, 21 DAT, Table 4.3 | [1]; DIGSA, growth stage 22, height 10-15 cm, B 90 g ai/ha, 7 DAT, Table 4.1 | [1]; DIGSA, growth stage 22, height 10-15 cm, B 90 g ai/ha, 21 DAT, Table 4.3 | [1]; Table 8.1, 7 DAT, stage 22, height 10-15 cm, g ai/ha A-1 18, B 70, C-12 1066 | [1]; Table 8.2, 21 DAT, stage 22, height 10-15 cm, g ai/ha A-1 18, B 70, C-12 1066 | [1]; Table 8.4, 42 DAT, stage 22, height 10-15 cm, g ai/ha A-1 18, B 70, C-12 1066 | [2]; 7 DAT, stage 21-23, height 8-16 cm, g ai/ha A-1 18, B 70, C-8 840 | [2]; 7 DAT, stage 21-23, height 8-16 cm, g ai/ha A-1 18, B 70, C-12 252 | [2]; 7 DAT, stage 21-23, height 8-16 cm, g ai/ha A-1 18, B 90, C-4 12.5 | [2]; 7 DAT, stage 21-23, height 8-16 cm, g ai/ha A-1 18, B 90, C-8 840 | [2]; 7 DAT, stage 21-23, height 8-16 cm, g ai/ha A-1 18, B 90, C-12 252 | [2]; 21 DAT, stage 21-23, height 8-16 cm, g ai/ha A-1 18, B 90, C-12 252 | [2]; 42 DAT, stage 21-23, height 8-16 cm, g ai/ha A-1 12.5, B 70 | [2]; 42 DAT, stage 21-23, height 8-16 cm, g ai/ha A-1 12.5, B 70, C-12 252 | [2]; 42 DAT, stage 21-23, height 8-16 cm, g ai/ha A-1 18, B 70 | [2]; 42 DAT, stage 21-23, height 8-16 cm, g ai/ha A-1 18, B 90, C-12 252 | [2]; SETVE, growth stage 21-23, height 8-16 cm, B 70 g ai/ha, 7 DAT, Table 4.1 | [2]; SETVE, growth stage 21-23, height 8-16 cm, B 70 g ai/ha, 21 DAT, Table 4.3 | [2]; SETVE, growth stage 21-23, height 8-16 cm, B 90 g ai/ha, 7 DAT, Table 4.1 | [2]; SETVE, growth stage 21-23, height 8-16 cm, B 90 g ai/ha, 21 DAT, Table 4.3 | [2]; Table 8.1, 7 DAT, stage 21-23, height 8-16 cm, g ai/ha A-1 18, B 70, C-12 1066 | [2]; Table 8.2, 21 DAT, stage 21-23, height 8-16 cm, g ai/ha A-1 12.5, B 70, C-12 1066 | [2]; Table 8.4, 42 DAT, stage 21-23, height 8-16 cm, g ai/ha A-1 12.5, B 70, C-12 1066
